From patent publication US20240158446A1, “CYCLIC COMPOUND HAVING SELECTIVE INHIBITORY ACTION ON KRAS OVER HRAS AND NRAS” (CHUGAI SEIYAKU KABUSHIKI KAISHA, priority 2021, published 2024)
Like-named read-outs stand apart in the source and are kept apart here. *1 amine or outer side, *2 acyl side, *3 side chain or, on linkers, in order; H or OH if unused. Where a SMILES comes first, the peptide text is derived from it. Bridges are numbered along the chain shown (N, C = ends). [ ]: non-standard residue; d: D form. The star is where a group is joined. X25 = O=C([C@H](Cc1ccc(C(F)(F)F)cc1)N(CCC(F)(F)F)[*:1])[*:2]; hPhe(3-Cl-4-CF3) = N[C@@H](CCc1ccc(C(F)(F)F)c(Cl)c1)C(=O)O; NPrPhe(4-CF3) = CCCN[C@@H](Cc1ccc(C(F)(F)F)cc1)C(=O)O; X20 = Cc1ccc(C[C@@H](C(=O)[*:2])N(CC2CCCC2)[*:1])cc1; X35 = COCCN([C@@H](Cc1ccc(C)cc1)C(=O)[*:2])[*:1]; NPrPhe(4-Me) = CCCN[C@@H](Cc1ccc(C)cc1)C(=O)O; NMeGly(cPent) = CN[C@H](C(=O)O)C1CCCC1; Pro(4,4-F2) = O=C(O)[C@@H]1CC(F)(F)CN1; NMeD = CN[C@@H](CC(=O)O)C(=O)O; NMeL = CN[C@@H](CC(C)C)C(=O)O; N(Me)CH2CH2OMe = COCCN(C)*; Morpholide = C1CN(*)CCO1; NMeA = CN[C@@H](C)C(=O)O; Ac5c = NC1(C(=O)O)CCCC1; Aze = O=C(O)[C@@H]1CCN1; Ac4c = NC1(C(=O)O)CCC1; NEtG = CCNCC(=O)O; Sar = CNCC(=O)O

What was measured:
[1] = molecular target: GDP-bound HRAS wild-type protein (Homo sapiens, UniProt P01112); assay: Binding to HRAS by surface plasmon resonance (SPR), Single Cycle Kinetics; conditions: for HRAS/KRAS (ratio of KD value with respect to HRAS to KD value with respect to KRAS) / HRAS/KRAS (ratio of KD value for HRAS to KD value for KRAS): SPR, GDP-bound HRAS wild-type protein vs GDP-bound KRAS wild-type protein; for HRAS/KRAS (ratio of KD value with respect to GDP-bound HRAS wild-type protein to KD value with respect to KRAS): SPR KD ratio HRAS/KRAS, class symbols
GDP-bound HRAS wild-type protein, sequence (P01112 whole entry): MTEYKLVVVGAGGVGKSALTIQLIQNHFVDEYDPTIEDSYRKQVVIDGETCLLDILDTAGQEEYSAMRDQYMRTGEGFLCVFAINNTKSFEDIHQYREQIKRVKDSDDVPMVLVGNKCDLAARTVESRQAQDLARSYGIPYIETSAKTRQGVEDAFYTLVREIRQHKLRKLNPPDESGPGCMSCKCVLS

[2] = molecular target: GDP-bound NRAS wild-type protein (Homo sapiens, UniProt P01111); assay: Binding to NRAS by surface plasmon resonance (SPR), Single Cycle Kinetics; conditions: for NRAS/KRAS (ratio of KD value with respect to NRAS to KD value with respect to KRAS) / NRAS/KRAS (ratio of KD value for NRAS to KD value for KRAS): SPR, GDP-bound NRAS wild-type protein vs GDP-bound KRAS wild-type protein; for NRAS/KRAS (ratio of KD value with respect to GDP-bound NRAS wild-type protein to KD value with respect to KRAS): SPR KD ratio NRAS/KRAS, class symbols
GDP-bound NRAS wild-type protein, sequence (P01111 whole entry): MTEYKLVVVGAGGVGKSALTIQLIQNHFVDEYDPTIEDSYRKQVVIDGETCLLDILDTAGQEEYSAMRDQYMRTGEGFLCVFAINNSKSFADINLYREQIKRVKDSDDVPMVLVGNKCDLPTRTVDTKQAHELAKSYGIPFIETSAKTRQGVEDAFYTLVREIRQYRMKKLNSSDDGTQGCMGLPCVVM

[3] = molecular target: GDP-bound KRAS wild-type protein (Homo sapiens, UniProt P01116); assay: Binding to KRAS by surface plasmon resonance (SPR), Single Cycle Kinetics; conditions: GDP-bound KRAS wild-type protein, read-out: KRAS KD
GDP-bound KRAS wild-type protein, sequence (P01116 whole entry): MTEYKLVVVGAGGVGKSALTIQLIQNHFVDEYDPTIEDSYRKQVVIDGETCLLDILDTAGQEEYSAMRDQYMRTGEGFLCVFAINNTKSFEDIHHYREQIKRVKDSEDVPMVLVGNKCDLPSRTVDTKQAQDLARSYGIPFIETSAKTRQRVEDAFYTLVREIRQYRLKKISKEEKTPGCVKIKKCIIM

[4] = SPR Single Cycle Kinetics, 1:1 binding model

SMILES	Kd [3, 4] [pM]	HRAS/KRAS (ratio of KD value for HRAS to KD value for KRAS) [1]	NRAS/KRAS (ratio of KD value for NRAS to KD value for KRAS) [2]	also measured
CC[C@H](C)[C@@H]1NC(=O)[C@H](C)N(C)C(=O)C[C@@H](C(=O)N(C)C)N(C)C(=O)[C@H](C2CCCC2)N(C)C(=O)C2(CCC2)NC(=O)[C@@H]2CC(F)(F)CN2C(=O)[C@H](CCc2cc(F)c(C(F)(F)F)c(F)c2)NC(=O)CN(C)C(=O)[C@H](Cc2ccc(C(F)(F)F)cc2)N2CCCCC[C@@H](C2=O)N(C)C(=O)CN(C)C1=O [PP0473]	560			HRAS/KRAS (ratio of KD value with respect to HRAS to KD value with respect to KRAS) [1]: C (A compound having a KD ratio of 0.1 or more and less than 3 is denoted as C); NRAS/KRAS (ratio of KD value with respect to NRAS to KD value with respect to KRAS) [2]: C (A compound having a KD ratio of 0.1 or more and less than 3 is denoted as C)
CCCN1C(=O)CN(C)C(=O)CN(C)C(=O)[C@H]([C@@H](C)CC)NC(=O)[C@H](CC(C)C)N(C)C(=O)C[C@@H](C(=O)N(C)CCOC)N(C)C(=O)[C@H](C2CCCC2)N(C)C(=O)C2(CCCC2)NC(=O)[C@@H]2CCCN2C(=O)[C@H](CCc2ccc(C(F)(F)F)c(Cl)c2)NC(=O)CN(C)C(=O)[C@@H]1Cc1ccc(C(F)(F)F)cc1 [PP0391] ([NMeL]I[Sar][Sar][NPrPhe(4-CF3)][Sar][hPhe(3-Cl-4-CF3)]P[Ac5c][NMeGly(cPent)][NMeD]-{N(Me)CH2CH2OMe}; lactam N-11)	92	B (a compound having 3 or more and less than 10 is denoted as B)	B (a compound having 3 or more and less than 10 is denoted as B)	
CCC[C@H]1C(=O)N[C@@H]([C@@H](C)CC)C(=O)N(C)CC(=O)N(C)[C@H]2C/C=C\CCN(C2=O)[C@@H](Cc2ccc(C(F)(F)F)cc2)C(=O)N(C)CC(=O)N[C@@H](CCc2ccc(C(F)(F)F)c(Cl)c2)C(=O)N2C[C@H](OCC)C[C@H]2C(=O)NC2(CC(C)(C)C2)C(=O)N(C)[C@@H]([C@@H](C)CC)C(=O)N(C)[C@H](C(=O)N(C)C)CC(=O)N1C [PP2973]		A (a compound having 10 or more and less than 20 is denoted as A)	A (a compound having 10 or more and less than 20 is denoted as A)	Kd ([3]; SPR, Single Cycle Kinetics): 180 pM
CC[C@H](C)[C@@H]1NC(=O)[C@H](CC(C)C)N(C)C(=O)C[C@@H](C(=O)N2CCOCC2)N(C)C(=O)[C@H](C2CCCC2)N(C)C(=O)C2(CCCC2)NC(=O)[C@@H]2CCCN2C(=O)[C@H](CCc2ccc(C(F)(F)F)c(Cl)c2)NC(=O)CN(C)C(=O)[C@H](Cc2ccc(C)cc2)N(CCOC)C(=O)[C@@H]2CCN2C(=O)[C@H](C)N(C)C1=O [PP0092] ([NMeL]I[NMeA][Aze][X35][Sar][hPhe(3-Cl-4-CF3)]P[Ac5c][NMeGly(cPent)][NMeD]-Morpholide; lactam N-11)	150	C (A compound having a KD ratio of 0.1 or more and less than 3 is denoted as C)	C (A compound having a KD ratio of 0.1 or more and less than 3 is denoted as C)	
CCO[C@@H]1C[C@H]2C(=O)NC3(CC(F)(F)C3)C(=O)N(C)[C@@H](C3CCCC3)C(=O)N(C)C(C3CCCCC3)CC(=O)N(C)[C@@H](COC)C(=O)N[C@@H]([C@@H](C)CC)C(=O)N(C)CC(=O)N(C)[C@H]3C/C=C\CCN(C3=O)[C@@H](Cc3ccc(C(F)(F)F)cc3)C(=O)N(C)CC(=O)N[C@@H](CCc3cc(F)c(C(F)(F)F)c(F)c3)C(=O)N2C1 (stereo partly drawn) [PP1586]				HRAS/KRAS (ratio of KD value for HRAS to KD value for KRAS) ([1]; KD ratio class): A (a compound having 10 or more and less than 20 is denoted as A); NRAS/KRAS (ratio of KD value for NRAS to KD value for KRAS) ([2]; KD ratio class): A (a compound having 10 or more and less than 20 is denoted as A); Kd ([3]; SPR, Single Cycle Kinetics, 1:1 binding model): 760 pM
CC[C@H](C)[C@@H]1NC(=O)[C@H](CC(C)C)N(C)C(=O)C[C@@H](C(=O)N2CCOCC2)N(C)C(=O)[C@H](C2CCCC2)N(C)C(=O)C2(CCCC2)NC(=O)[C@@H]2CCCN2C(=O)[C@H](CCc2ccc(C(F)(F)F)c(Cl)c2)NC(=O)CN(C)C(=O)[C@H](Cc2ccc(C(F)(F)F)cc2)N(CCC(F)(F)F)C(=O)CN(C)C(=O)CN(C)C1=O [PP0131] ([NMeL]I[Sar][Sar][X25][Sar][hPhe(3-Cl-4-CF3)]P[Ac5c][NMeGly(cPent)][NMeD]-Morpholide; lactam N-11)	140	C (A compound having a KD ratio of 0.1 or more and less than 3 is denoted as C)	B (a compound having 3 or more and less than 10 is denoted as B)	
CCCN1C(=O)CN(C)C(=O)CN(C)C(=O)[C@H]([C@@H](C)CC)NC(=O)[C@H](CC(C)C)N(C)C(=O)C[C@@H](C(=O)N2CCOCC2)N(C)C(=O)[C@H](C2CCCC2)N(C)C(=O)C2(CCCC2)NC(=O)[C@@H]2CCCN2C(=O)[C@H](CCc2ccc(C(F)(F)F)c(Cl)c2)NC(=O)CN(CC)C(=O)[C@@H]1Cc1ccc(C)cc1 [PP0066] ([NMeL]I[Sar][Sar][NPrPhe(4-Me)][NEtG][hPhe(3-Cl-4-CF3)]P[Ac5c][NMeGly(cPent)][NMeD]-Morpholide; lactam N-11)	1400	C (A compound having a KD ratio of 0.1 or more and less than 3 is denoted as C)	B (a compound having 3 or more and less than 10 is denoted as B)	
CC[C@H](C)[C@@H]1NC(=O)[C@H](CC(C)C)N(C)C(=O)C[C@@H](C(=O)N2CCOCC2)N(C)C(=O)[C@H](C2CCCC2)N(C)C(=O)C2(CCCC2)NC(=O)[C@@H]2CCCN2C(=O)[C@H](CCc2ccc(C(F)(F)F)c(Cl)c2)NC(=O)CN(C)C(=O)[C@H](Cc2ccc(C)cc2)N(CC2CCCC2)C(=O)[C@@H]2CCN2C(=O)[C@H](C)N(C)C1=O [PP0084] ([NMeL]I[NMeA][Aze][X20][Sar][hPhe(3-Cl-4-CF3)]P[Ac5c][NMeGly(cPent)][NMeD]-Morpholide; lactam N-11)	2700	B (a compound having 3 or more and less than 10 is denoted as B)	C (A compound having a KD ratio of 0.1 or more and less than 3 is denoted as C)	
CCCN1C(=O)[C@@H]2CCN2C(=O)CN(C)C(=O)[C@H]([C@@H](C)CC)NC(=O)[C@H](CC(C)C)N(C)C(=O)C[C@@H](C(=O)N(C)C)NC(=O)[C@H](C2CCCC2)N(C)C(=O)C2(CCC2)NC(=O)[C@@H]2CC(F)(F)CN2C(=O)[C@H](CCc2ccc(C(F)(F)F)c(Cl)c2)NC(=O)CN(C)C(=O)[C@@H]1Cc1ccc(C(F)(F)F)cc1 [PP0388] ([NMeL]I[Sar][Aze][NPrPhe(4-CF3)][Sar][hPhe(3-Cl-4-CF3)][Pro(4,4-F2)][Ac4c][NMeGly(cPent)]D-NMe2; lactam N-11)	780	B (a compound having 3 or more and less than 10 is denoted as B)	C (A compound having a KD ratio of 0.1 or more and less than 3 is denoted as C)	

Further lines, with some results ahead:

Kd [3, 4] [pM]	SMILES	HRAS/KRAS (ratio of KD value for HRAS to KD value for KRAS) [1]	NRAS/KRAS (ratio of KD value for NRAS to KD value for KRAS) [2]	also measured
200	CC[C@H](C)[C@@H]1NC(=O)[C@@H]2CCC/C=C/c3ccc(cc3)C[C@@H](C(=O)N(C)CC(=O)N[C@@H](CCc3ccc(Cl)c(Cl)c3)C(=O)N3CCC[C@H]3C(=O)NC3(CC(C)(C)C3)C(=O)N(C)[C@@H](C3CCCC3)C(=O)N(C)[C@H](C(=O)N(C)CC)CC(=O)N2C)N2CC/C=C\C[C@@H](C2=O)N(C)C(=O)CN(C)C1=O [PP2601]			HRAS/KRAS (ratio of KD value with respect to GDP-bound HRAS wild-type protein to KD value with respect to KRAS) [1]: A (a compound having 10 or more and less than 20 is denoted as A); NRAS/KRAS (ratio of KD value with respect to GDP-bound NRAS wild-type protein to KD value with respect to KRAS) [2]: A (a compound having 10 or more and less than 20 is denoted as A)
620	CCC[C@H]1C(=O)N[C@@H]([C@@H](C)CC)C(=O)N(C)CC(=O)N(C)[C@H]2C/C=C\CCN(C2=O)[C@@H](Cc2ccc(C)cc2)C(=O)N(C)CC(=O)N[C@@H](CCc2ccc(CC)c(Cl)c2)C(=O)N2C[C@H](OCC)C[C@H]2C(=O)NC2(CC(C)(C)C2)C(=O)N(C)[C@@H](C2CCCC2)C(=O)N(C)[C@H](C(=O)N(C)C)CC(=O)N1C [PP2778]			HRAS/KRAS (ratio of KD value with respect to GDP-bound HRAS wild-type protein to KD value with respect to KRAS) [1]: A (a compound having 10 or more and less than 20 is denoted as A); NRAS/KRAS (ratio of KD value with respect to GDP-bound NRAS wild-type protein to KD value with respect to KRAS) [2]: A (a compound having 10 or more and less than 20 is denoted as A)
8600	CCO[C@@H]1C[C@H]2C(=O)NC3(CCC3)C(=O)N(C)[C@@H](C3CCCC3)C(=O)N(CCC3CCCC3)[C@H](C(=O)N(C)C)CC(=O)N(C)[C@@H](CC)C(=O)N[C@@H]([C@@H](C)CC)C(=O)N(C)CC(=O)N(C)[C@H]3CCCCCN(C3=O)[C@@H](Cc3ccc(C(F)(F)F)cc3)C(=O)N(C)CC(=O)N[C@@H](CCc3cc(F)c(C(F)(F)F)c(F)c3)C(=O)N2C1 [PP0636]			HRAS/KRAS (ratio of KD value with respect to HRAS to KD value with respect to KRAS) [1]: A (a compound having 10 or more and less than 20 is denoted as A); NRAS/KRAS (ratio of KD value with respect to NRAS to KD value with respect to KRAS) [2]: A (a compound having 10 or more and less than 20 is denoted as A)
